Source: patent US12590091B2, “1H-pyrrolo[3,2-C]pyridine and 1H-pyrrolo[2,3-C]pyridine derivatives as TLR9 inhibitors for the treatment of fibrosis” (BRISTOL-MYERS SQUIBB COMPANY, priority 2020, dated 2026)

Biological target: T1, human TLR9 (Homo sapiens, UniProt Q9NR96)
T1 construct: host or cells: HEK-Blue cells
T1 sequence (Q9NR96 26-1032): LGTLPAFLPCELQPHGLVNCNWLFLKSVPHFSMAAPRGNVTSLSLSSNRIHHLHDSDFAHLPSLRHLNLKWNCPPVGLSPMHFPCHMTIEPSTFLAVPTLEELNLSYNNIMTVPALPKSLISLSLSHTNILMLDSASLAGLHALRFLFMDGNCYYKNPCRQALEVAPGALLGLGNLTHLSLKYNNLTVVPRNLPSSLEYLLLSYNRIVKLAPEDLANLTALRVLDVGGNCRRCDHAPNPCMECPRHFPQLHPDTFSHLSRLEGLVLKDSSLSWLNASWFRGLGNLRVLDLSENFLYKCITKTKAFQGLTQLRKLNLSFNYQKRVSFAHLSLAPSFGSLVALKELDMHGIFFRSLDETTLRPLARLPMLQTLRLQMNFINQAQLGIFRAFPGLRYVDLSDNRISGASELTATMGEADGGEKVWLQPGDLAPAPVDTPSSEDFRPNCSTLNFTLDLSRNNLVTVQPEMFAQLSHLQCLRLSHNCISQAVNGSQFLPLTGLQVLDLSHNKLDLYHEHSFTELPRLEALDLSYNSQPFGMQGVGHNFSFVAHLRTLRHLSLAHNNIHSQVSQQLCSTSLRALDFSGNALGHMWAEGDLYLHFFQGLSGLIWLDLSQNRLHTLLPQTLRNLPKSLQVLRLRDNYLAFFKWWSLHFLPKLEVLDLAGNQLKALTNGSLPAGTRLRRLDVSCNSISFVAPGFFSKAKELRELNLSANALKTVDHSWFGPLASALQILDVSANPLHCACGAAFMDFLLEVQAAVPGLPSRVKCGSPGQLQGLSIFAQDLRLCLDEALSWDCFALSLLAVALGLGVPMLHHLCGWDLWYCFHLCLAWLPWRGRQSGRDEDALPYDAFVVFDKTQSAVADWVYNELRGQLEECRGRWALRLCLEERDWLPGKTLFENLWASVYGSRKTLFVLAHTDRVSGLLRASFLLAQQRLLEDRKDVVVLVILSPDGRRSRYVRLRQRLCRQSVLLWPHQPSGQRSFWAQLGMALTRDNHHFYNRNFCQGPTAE
Experiment: TLR9 inhibition reporter assay (HEK-Blue cells, SEAP reporter)
Type: cell-based
Conditions: HEK-Blue cells overexpressing human TLR9, stimulated with ODN2006 5 nM, 22 hour incubation
Summary of the method: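 HEK-Blue cells overexpressing human TLR9 (25,000 cells/well), NF-κB/AP-1-driven SEAP reporter. Compounds at 0.05 nM–50 μM final, 22 h at 37 °C, 5% CO2 with agonist. SEAP detected with HEK-Blue Detection medium; % inhibition versus agonist plus DMSO and known-inhibitor wells.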

SMILES	IC50 [nM]
Cc1nc(-c2ccc(C3(O)CCN(CC(C)C)CC3)c(F)c2)cc2c1cc(-c1ccc(S(C)(=O)=O)cc1)n2C [Example 90, 4-(4-(1,4-dimethyl-2-(4-(methylsulfonyl)phenyl)-1H-pyrrolo[3,2-c]pyridin-6-yl)-2-fluorophenyl)-1-isobutylpiperidin-4-ol]	141
Cc1nc(-c2cc(F)c(C3(O)CCN(C4CC4)CC3)cc2F)cc2c1cc(-c1ccc(S(C)(=O)=O)cc1)n2C [Example 96, 1-cyclopropyl-4-(4-(1,4-dimethyl-2-(4-(methylsulfonyl)phenyl)-1H-pyrrolo[3,2-c]pyridin-6-yl)-2,5-difluorophenyl)piperidin-4-ol]	162
Cc1nc(-c2cc(F)c(C3(O)CCN(CC(C)C)CC3)cc2F)cc2c1cc(-c1ccc(S(C)(=O)=O)cc1)n2C [Example 94, 4-(4-(1,4-dimethyl-2-(4-(methylsulfonyl)phenyl)-1H-pyrrolo[3,2-c]pyridin-6-yl)-2,5-difluorophenyl)-1-isobutylpiperidin-4-ol]	143
Cc1nc(-c2cc(F)c(N3CCN(C4CCOCC4)CC3)c(F)c2)cc2c1cc(-c1ccc(S(C)(=O)=O)cc1)n2C [Example 89, 6-(3,5-difluoro-4-(4-(tetrahydro-2H-pyran-4-yl)piperazin-1-yl)phenyl)-1,4-dimethyl-2-(4-(methylsulfonyl)phenyl)-1H-pyrrolo[3,2-c]pyridine]	226
COCCN1CCC(O)(c2cc(F)c(-c3cc4c(cc(-c5ccc(S(C)(=O)=O)cc5)n4C)c(C)n3)cc2F)CC1 [Example 95, 4-(4-(1,4-dimethyl-2-(4-(methylsulfonyl)phenyl)-1H-pyrrolo[3,2-c]pyridin-6-yl)-2,5-difluorophenyl)-1-(2-methoxyethyl)piperidin-4-ol]	537
Cc1nc(-c2cc(F)c(N3CCN4CCCC4C3)c(F)c2)cc2c1cc(-c1ccc(S(C)(=O)=O)cc1)n2C (stereo not drawn) [Example 98, 6-(3,5-difluoro-4-(hexahydropyrrolo[1,2-a]pyrazin-2(1H)-yl)phenyl)-1,4-dimethyl-2-(4-(methylsulfonyl)phenyl)-1H-pyrrolo[3,2-c]pyridine]	212
Cc1nc(-c2ccc(C3(O)CC4CCC(C3)N4CC(C)C)c(F)c2)cc2c1cc(-c1ccc(S(C)(=O)=O)cc1)n2C [Example 91, (1R,3r,5S)-3-(4-(1,4-dimethyl-2-(4-(methylsulfonyl)phenyl)-1H-pyrrolo[3,2-c]pyridin-6-yl)-2-fluorophenyl)-8-isobutyl-8-azabicyclo[3.2.1]octan-3-ol]	735
Cc1nc(-c2cc(F)c(N3CCN4CCCC4C3)cc2F)cc2c1cc(-c1ccc(S(C)(=O)=O)cc1)n2C (stereo not drawn) [Example 97, 6-(2,5-difluoro-4-(hexahydropyrrolo[1,2-a]pyrazin-2(1H)-yl)phenyl)-1,4-dimethyl-2-(4-(methylsulfonyl)phenyl)-1H-pyrrolo[3,2-c]pyridine]	202
COc1ccc(-c2cc3cnc(C4CCN(Cc5ccc(C)nc5)CC4)cc3n2C)cc1OC [Example 8, 2-(3,4-Dimethoxyphenyl)-1-methyl-6-(1-((6-methylpyridin-3-yl)methyl)piperidin-4-yl)-1H-pyrrolo[3,2-c]pyridine]	58
CCOC(=O)N1CCC(N2CCC(c3cc4c(cn3)cc(-c3ccc(OC)c(OC)c3)n4C)CC2)CC1 [Example 7, Ethyl 4-(2-(3,4-dimethoxyphenyl)-1-methyl-1H-pyrrolo[3,2-c]pyridin-6-yl)-[1,4′-bipiperidine]-1′-carboxylate]	111
Cc1nc(-c2ccc(C3(O)CCN(C4CC4)CC3)c(F)c2)cc2c1cc(-c1ccc(S(C)(=O)=O)cc1)n2C [Example 93, 1-cyclopropyl-4-(4-(1,4-dimethyl-2-(4-(methylsulfonyl)phenyl)-1H-pyrrolo[3,2-c]pyridin-6-yl)-2-fluorophenyl)piperidin-4-ol]	1430
COCCN1CCC(O)(c2ccc(-c3cc4c(cc(-c5ccc(S(C)(=O)=O)cc5)n4C)c(C)n3)cc2F)CC1 [Example 92, 4-(4-(1,4-dimethyl-2-(4-(methylsulfonyl)phenyl)-1H-pyrrolo[3,2-c]pyridin-6-yl)-2-fluorophenyl)-1-(2-methoxyethyl)piperidin-4-ol]	109
